Patent publication US20110123623A1, “RHAMNOLIPID MECHANISM” (priority 2009, published 2011)

How the values were obtained:
[1] = test system: patients; experiment: Treatment of patients with seborrheic dermatitis, lichen planus and dermatitis circumscripta unilocularis; assay type: in vivo, human
Experimental: Twelve psoriatic hospital bed patients, and one patient with seborrheic dermatitis and psoriasis, one patient with lichen planus and one with dermatitis cicumscripta unilocullaris as an out clinic patient were recruited as study volunteers.
Patients with seborhheic dermatitis, lichen planus and dermatitis unilocularis circumscripta eczematoides were cured.
This condition, confirmed with clinical appearance and histopahological findings, was treated with different standard approaches, (mostly) steroids, but condition worsened with tendency to spread further to the large wound covered by thick crust. Following the treatment with 1% Di-rhamnolipid W3CTS, eucerin ointment was introduced with overnight inclusions during four weeks. […] Patient died by natural course 15 years after treatment had been finished.

[2] = biological target: human dopamine D2L (human recombinant) (Homo sapiens, UniProt P14416); experiment: Dopamine D2L receptor binding of [3H]Spiperone; details: 100 μM in 0.5 DMSO
Experimental: (§1) At the concentration of 100 μM Di-rhamnolipid W3CTS in 0.5% DMSO, Di-rhamnolipid W3CTS inhibited 100% dopamine D1 (human recombinant) binding of [^3H] SCH23390. At the same concentration of 100 μM W3CTS in 0.5 DMSO measuring binding of [^3H]Spiperone to human dopamine D2L (human recombinant) was inhibited by 53%.

[3] = biological target: dopamine D1 (human recombinant) (Homo sapiens, UniProt P21728); experiment: Dopamine D1 receptor binding of [3H]SCH23390; details: 100 μM in 0.5% DMSO
Experimental: as §1

[4] = test system: female ICR mice; experiment: Immunostimulation (cellular): oxazolone-induced delayed type hypersensitivity; assay type: in vivo, mouse; details: oxazolone-induced DTH
Excerpt: Immunostimulation (cellular): Oxazolone-induced delayed type hypersensitivity of female ICR mice was negative.

[5] = test system: neonatal human keratinocytes; experiment: Colony forming efficiency of neonatal human keratinocytes; assay type: cell-based; details: GM medium with 10% fetal bovine serum
Experimental: Colony forming efficiency of neonatal human keratinocytes treated with Di-rhamnolipid W3CTS.
The stimulation was most significant at 100 μg/ml and 50 μg/ml the colony forming ability was increased by 34% at 50 μg/ml of Di-rhamnolipid W3CTS. The results are consistent with the effects of Di-rhamnolipid W3CTS on the neonatal human keratinocyte viability in GM with 10% fetal bovine serum.

[6] = test system: Swiss-Webster female mice; experiment: Acute cutaneous irritation, mouse ear assay (Part A); assay type: in vivo; details: single topical application, up to 24 hours
Experimental: Effects of Di-rhamnolipid W3CTS on TPA/pyr induced acute inflammation in the ears of Swiss-Webster female mice.
The aim of this study was two-fold. In Part A the potential of a single topical application of W3CTS to cause acute cutaneous irritation (up to 24 hours) was measured in a mouse ear assay system. […] The aim of Part B was to determine the effects of a single topical administration of W3CTS on acute dermal inflammation induced by TPA/pyr, Part B was designed to differentiate the ability of Di-rhamnolipid W3CTS at concentration 1 mg/ml to prevent, inhibit or reverse induced ear inflammation.

[7] = test system: nude guinea pigs; experiment: DNCB induced delayed type hypersensitivity in nude guinea pigs; assay type: in vivo, guinea pig
Experimental: The nude guinea pig is used as a test animal because of different animal skins; nude guinea pig skin is claimed to be the one closest resembling human skin.
In DNCB sensitized guinea pigs delayed type hypersensitivity reactions were induced with patches soaked with 0.25% (w/v) DNCB in ethanol/propylene glycol kept on the animals back for 24 hours. The test sites were treated twice daily during 7 days with: Dovonex ointment ([…]), 1% Di-rhamnolipid W3CTS in Vaseline, vehicle and untreated area. […] Dovonex has been improved by time.

[8] = Micronucleus test in-vivo
[9] = test system: ICR male mice; experiment: Immunosuppression (humoral); assay type: in vivo, mouse
Excerpt: (§2) Immunostimulation (humoral) in BALB/c male mice and Immunosuppression (humoral)^(2,7) on ICR male mice were negative.

[10] = test system: BALB/c male mice; experiment: Immunostimulation (humoral); assay type: in vivo, mouse
Excerpt: as §2

[11] = test system: B-lymphocyte cells isolated from the spleen of balb/c mice; experiment: Mouse B-cell proliferation (thymidine incorporation); assay type: cell-based
Experimental: T-lymphocyte cells isolated from thymus of balb/c mice weighing 17±1 g were used. Test compound and/or vehicle was incubated with the cells (4×10^6/ml) in the presence of 3 μg/ml concanavalin A (Con A) overnight. Thymidine incorporation was assessed by liquid scintillation counting. B-lymphocyte cells isolated from the spleen of balb/c mice weighing 17±1 g were used. Test compound and/or vehicle was incubated with the cells (1.5×10^6/ml) in the presence of 10 μg/ml lipopolysaccharide (LPS) in AIM-V medium pH 7.4 at 37° C., during 24 hours. [^3H]Thymidine (120 nM) was then added for an additional overnight incubation period. Thymidine incorporation was assessed by liquid scintillation counting. […] T-cells isolated from mouse thymus were inhibited at the concentration of 10 μM by 24% and in the presence of concanavalin T-cells proliferation was inhibited 43%.

[12] = test system: female ICR mice; experiment: Immunosuppression (cellular): oxazolone-induced delayed type hypersensitivity; assay type: in vivo, mouse; details: oxazolone-induced DTH
Excerpt: Immunosuppression (cellular): Oxazolone-induced delayed type hypersensitivity of female ICR mice was negative.

Chain of human dopamine D2L (human recombinant) (P14416 whole entry): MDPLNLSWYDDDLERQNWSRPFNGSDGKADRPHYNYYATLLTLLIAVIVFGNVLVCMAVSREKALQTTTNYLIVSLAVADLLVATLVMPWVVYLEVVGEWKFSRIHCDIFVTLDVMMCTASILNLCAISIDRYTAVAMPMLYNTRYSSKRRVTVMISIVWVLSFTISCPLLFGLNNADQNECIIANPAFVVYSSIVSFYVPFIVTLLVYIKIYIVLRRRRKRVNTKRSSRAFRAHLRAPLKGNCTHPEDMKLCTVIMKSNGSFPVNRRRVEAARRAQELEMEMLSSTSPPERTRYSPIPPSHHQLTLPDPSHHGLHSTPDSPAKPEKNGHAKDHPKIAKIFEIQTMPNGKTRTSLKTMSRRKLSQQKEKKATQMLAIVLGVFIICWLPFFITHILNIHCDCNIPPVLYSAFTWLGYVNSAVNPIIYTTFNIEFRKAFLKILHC
Chain of dopamine D1 (human recombinant) (P21728 whole entry): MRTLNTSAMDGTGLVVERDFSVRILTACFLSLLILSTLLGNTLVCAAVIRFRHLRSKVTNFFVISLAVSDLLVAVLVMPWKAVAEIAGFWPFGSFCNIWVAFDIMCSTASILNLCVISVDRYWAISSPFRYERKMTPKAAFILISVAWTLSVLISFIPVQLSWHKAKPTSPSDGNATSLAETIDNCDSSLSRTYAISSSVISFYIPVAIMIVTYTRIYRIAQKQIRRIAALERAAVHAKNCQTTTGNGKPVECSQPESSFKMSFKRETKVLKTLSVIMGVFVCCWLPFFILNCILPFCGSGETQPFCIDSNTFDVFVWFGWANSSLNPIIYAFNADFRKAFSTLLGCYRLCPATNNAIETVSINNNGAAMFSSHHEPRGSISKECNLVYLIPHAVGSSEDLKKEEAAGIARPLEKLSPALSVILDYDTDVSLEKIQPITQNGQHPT

In the case of `CCCCCCCC(CC(=O)O)OC(=O)CC(CCCCCCC)OC1OC(C)C(O)C(O)C1OC1OC(C)C(O)C(O)C1O` (centres unmarked) [Di-rhamnolipid W3CTS], the “outcome in seborhheic dermatitis, lichen planus and dermatitis unilocularis circumscripta eczematoides” value ([1]; 1.0% eucerin ointment) is reported as “cured”, the “skin over the wound” value ([1]; after one year) is reported as “looking normal” and the “wound healing in dermatitis circumscripta unilocularis” value ([1]; person, 1% eucerin ointment, overnight inclusions during four weeks) is reported as “The wound started to heal”. For the same molecule, the inhibition at 100 µM [2] was 53%, the inhibition at 100 µM [3] was 100% and the “Immunostimulation (cellular)” value [4] was “negative”. For the same molecule, the “colony forming ability increase” value ([5]; 50 μg/ml) was 34%, the “growth of keratinocyte colonies” value ([5]; 100, 50, 10 and 1 μg/ml) was “stimulated the growth of keratinocyte colonies” and the “acute cutaneous irritation (ear erythema)” value [6] was “did not cause acute cutaneous irritation”. The “anti-inflammatory effect in the model” value ([7]; 1% in Vaseline, preliminary data) was “very strong anti-inflammatory effect”, the “state of test areas by day 7” value ([7]; treated twice daily during 7 days, W3CTS 1% in Vaseline) was “healed” and the micronucleus test [8] was “negative”. The “Immunosuppression (humoral)” value [9] was “negative”, the “Immunostimulation (humoral)” value [10] was “negative” and the “effect on B-cell proliferation” value ([11]; 10 μM in 0.5% DMSO, without LPS) was “did not have any effect”. The inhibition at 10 µM ([11]; Mus musculus, B-cell, 10 μM, in the presence of LPS) was ≤ 54% and the “Immunosuppression (cellular)” value [12] was “negative”.
